Target: SARS 3CL^pro (Severe acute respiratory syndrome coronavirus, UniProt P0C6U8)
Test: biochemical
Parameters: species or system SARS-CoV

O=C1c2c(O)cc(O)cc2O[C@H](c2cc(O)c(O)c(O)c2)[C@H]1O [AMPLS, ampelopsin]
IC50: 364 ± 8.7 µM | inhibition at 200 µM (pH 7.5): > 30%

O=c1c(-c2ccc(O)cc2)coc2cc(O)ccc12 [Daidzein, daidzein]
IC50: 351 ± 2.9 µM | inhibition at 200 µM (pH 7.5): > 30%

Oc1cc(O)c2c(c1)O[C@H](c1cc(O)c(O)c(O)c1)[C@H](O)C2 [EGC, epigallocatechin]
Inhibition (%) (pH 7.5): 5.4% | inhibition at 200 µM (pH 7.5): 5%

O=C(O[C@@H]1Cc2c(O)cc(O)cc2O[C@H]1c1cc(O)c(O)c(O)c1)c1cc(O)c(O)c(O)c1 [GCG, gallocatechin gallate]
3CL^pro inhibitory activity relative to EGCG (times higher): 1.5 times | IC50: 47 ± 0.9 µM | Ki: 25 ± 1.7 µM | Type of inhibition: competitive inhibition pattern | inhibition at 200 µM (pH 7.5): > 80%

O=c1c(-c2ccc(O)cc2)coc2c([C@@H]3O[C@H](CO)[C@@H](O)[C@H](O)[C@H]3O)c(O)ccc12 [Puerarin, puerarin]
IC50: 381 ± 12.5 µM | inhibition at 200 µM (pH 7.5): > 30%

O=c1c(O)c(-c2ccc(O)c(O)c2)oc2cc(O)cc(O)c12 [Quercetin]
IC50: 73 ± 4 µM | inhibition at 200 µM (pH 7.5): > 80%

Source: paper PMC7087583 (Biotechnology Letters, 2012)
